Here are results for 5 molecules from PMC2912430 (Biochemistry, 2010).

The structures appear in SMILES notation. pIC50, pKi: −log10 of the molar value. Values joined by “and” are separate entries in the source; they are usually repeats but may differ in a detail not shown here. Equal values may be shown once.

The target of assay [1] is T1, Thermus thermophilus IDI-2 (Thermus thermophilus, UniProt Q53W52). Nature of the assay: Product studies by 1H NMR, incubation with IDI-2. Type of assay: biochemical. The following applies: for Isomerization (turnover as substrate) by NMR: IDI-2, 37 °C, spectra at one-hour intervals over 12 h; for Reactivity relative to the natural substrates (times less reactive): IDI-2, estimate based on NMR studies.

The target of assay [2] is T2, Escherichia coli IDI-1 (Escherichia coli, UniProt Q46822). Nature of the assay: Acid lability assay, inhibition of the isomerization of IPP to DMAPP by IDI-1. The assay is classed as biochemical. The following applies: for Type of inhibition: isomerization of IPP to DMAPP catalyzed by IDI-1.
The target of assay [3] is T1, Thermus thermophilus IDI-2. Nature of the assay: Acid lability assay, inhibition of the isomerization of IPP to DMAPP by IDI-2. Type of assay: biochemical. The note with it: for Type of inhibition: isomerization of IPP to DMAPP catalyzed by IDI-2.
For assay [4], the target named is T2, Escherichia coli IDI-1. The note with it: cited from earlier work.
The target in assay [5] is T1, Thermus thermophilus IDI-2. The note with it: cited from earlier work.
A further assay deals with IDI-1. The note with it: positively charged ammonium group at physiological pH; cited from earlier work.

T2 sequence (Q46822 whole entry): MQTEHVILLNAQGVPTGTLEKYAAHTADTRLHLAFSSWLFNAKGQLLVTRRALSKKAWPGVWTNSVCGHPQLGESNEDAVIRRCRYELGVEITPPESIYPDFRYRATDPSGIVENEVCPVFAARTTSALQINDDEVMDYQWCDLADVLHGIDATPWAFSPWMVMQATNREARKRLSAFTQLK

On to `C=C=CCOP(=O)(O)OP(=O)(O)O` [2-OPP, 2,3-Butadien-1-yl diphosphate], for which, in assay [1], the “Isomerization (turnover as substrate) by NMR” value is on record as “no evidence was seen for isomerization” and the “Reactivity relative to the natural substrates (times less reactive)” value is on record as “at least 1000 times”. Also, at Escherichia coli IDI-1 [2], the pIC50 (usually the IC50 on a negative log10 scale, so that one unit is a factor of ten) was approximately 3.70 and the Type of inhibition entry is recorded as “competitive inhibitors”. In addition, the pKi (usually the negative decadic logarithm of the Ki, by convention in mol/L) on Escherichia coli IDI-1 [2] (KI, IDI-1, acid lability assay, competitive inhibition) is 4.31 and 4.51. In addition, in assay [3], the pIC50 is approximately 4.30 and the Type of inhibition entry is given as “competitive inhibitors”.
With `C#CCCOP(=O)(O)OP(=O)(O)O` [1-OPP, 3-Butyn-1-yl diphosphate], in assay [1], the “Isomerization (turnover as substrate) by NMR” value is on record as “no evidence was seen for isomerization” and the “Reactivity relative to the natural substrates (times less reactive)” value was “at least 1000 times”. Also, on Escherichia coli IDI-1 [2], the pIC50 was approximately 3.70 and the Type of inhibition entry is recorded as “competitive inhibitors”. For the same molecule, in assay [3], the negative-log IC50 (pIC50) is approximately 4.30 and the Type of inhibition entry was “competitive inhibitors”.
On to `CC(C)=CCOP(=O)(O)OP(=O)(O)O` [DMAPP, dimethylallyl diphosphate], for which the Km (in general, the substrate concentration at which the rate is half of its maximum) on Escherichia coli IDI-1 [4] is 14 µM.
`C=C(C)CCOP(=O)(O)OP(=O)(O)O` [IPP, isopentenyl diphosphate]: the results for the Km (on Escherichia coli IDI-1 [4]; in assay [5]) were 7.9 µM and 5.6 µM, respectively.
As to `CN(C)CCOP(=O)(O)OP(=O)(O)O` [N,N-Dimethyl-2-amino-1-ethyl diphosphate], the “Affinity for IDI-1” value in the assay with IDI-1 is recorded as “sub-nanomolar affinity”.
